Test results from patent publication US20240392383A1, “Cancer biomarkers for susceptibility to treatment by almitrine” (priority 2021, published 2024).
Read-outs that look alike come from different tables or passages of the source.

Columns and labels:
MYC/Max = MYC/Max (Homo sapiens, UniProt P01106); conditions: cited from earlier work
AML cells = conditions: cited from earlier work
[1] = reason for not being suitable for in vivo use [18]; cited from earlier work
CML [2] = conditions: cited from earlier work
[3] = cited from earlier work
NCI-60 cancer cell lines = assay: CellMiner gene expression correlated with growth inhibition (%) at 10 μM (mean of NCI 1-dose and 5-dose protocols); type: cell-based, human
From the text: Correlations first found using NCI COMPARE, with the aforementioned method, were then further corroborated using cancer gene expression data sourced from the CellMiner database. Indeed, the following NCI 1-dose and 5-dose anti-cancer data for almitrine dimesylate, with serial codes given that will be used to refer to each hereafter, was compared with cancer gene expression data sourced from CellMiner:
The CellMiner database includes five independent Human Genome gene expression data sets {accession numbers: GSE5949, GSE5720, GSE32474, GSE29682, GSE29288}, each of which can have multiple different transcript sequence probes for a single gene, wherein the mean expression for each gene was taken: within and across the different databases, which is distinct from NCI COMPARE where all expressions of different sequence transcripts for a gene were kept distinct without any averaging, and where there was no averaging across gene expression data sets, each was kept distinct. Although actually only four of these gene expression data sets in CellMiner were used to generate the mean for each gene expression: the single gene expression data set that used an Agilent instead of an Affymetrix microarray chip (GSE29288) was excluded from the mean because, to quote the CellMiner documentation: “Agilent probe(s) values are removed from cell line average intensity calculation due to normalization inconsistency with Affymetrix probesets”. […] So, the data set sourced from an Agilent microarray chip was not incorporated in the mean, but was instead used by itself separately for an independent verification. With much less data, the Agilent set is much less reliable than the mean of the 4 Affymetrix microarray data sets, but it is a nice independent adjudicator. This Agilent data set is not one of the six gene expression data sets at NCI COMPARE. By contrast, there is some overlap in the 4 CellMiner gene expression databases that were used for the mean and the 6 that were used with NCI COMPARE (some might be the same). […] Also, distinctly with the 4 Affymetrix microarray data sets in CellMiner, the mean expression for each gene was taken: averaging the expression of all the different sequence transcripts, across all the 4 used Affymetrix microarray data sets, for each gene. Moreover, this mean is very heavily weighted to a database that CellMiner has, and NCI COMPARE definitely doesn't, Accession number: GSE29682, because it tends to have many more probes for each gene than any other data set, indeed often more than all the others combined, each of which is an additional data point in the mean for each gene. […]

NCI-60 = NCI-60 testing; comparators e.g. carboplatin; reported in previous applications WO2019/012149A1; cited from earlier work
[4] = intravenous 459±155 mg almitrine dimesylate infused within 24 hours [16], cited from earlier work
CML [5] = assay: Anti-CML activity; type: cell-based; conditions: almitrine (or salt, solvate, hydrate, prodrug) and imatinib/dasatinib/nilotinib/radotinib/bosutinib/ponatinib; anticipated by the teaching of this disclosure

Chain of MYC/Max (P01106 whole entry): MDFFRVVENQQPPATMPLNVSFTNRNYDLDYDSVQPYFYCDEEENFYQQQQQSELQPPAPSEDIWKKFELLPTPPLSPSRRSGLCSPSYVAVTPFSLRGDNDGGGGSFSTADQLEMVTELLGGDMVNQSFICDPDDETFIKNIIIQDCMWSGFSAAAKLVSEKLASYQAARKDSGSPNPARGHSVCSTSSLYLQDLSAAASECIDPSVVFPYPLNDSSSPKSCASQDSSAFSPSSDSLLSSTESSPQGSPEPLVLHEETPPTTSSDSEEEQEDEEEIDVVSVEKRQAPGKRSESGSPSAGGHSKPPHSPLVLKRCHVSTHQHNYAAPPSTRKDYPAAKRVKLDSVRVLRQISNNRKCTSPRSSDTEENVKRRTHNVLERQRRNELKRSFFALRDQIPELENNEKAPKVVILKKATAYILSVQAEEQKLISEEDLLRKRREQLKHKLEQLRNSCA

For CCc1ccc(/C=C2/SC(=S)NC2=O)cc1 [10058-F4], the MYC/Max heterodimerization (MYC/Max; [18]) is listed as “does disrupt MYC/Max heterodimerization”, the Affinity for target (MYC/Max; target MYC [18]) is listed as “low affinity for target” and the “Drug resistance of leukemic cells” value (AML cells; AML, Myc inhibition [39]) is listed as “can overcome drug resistance”. The “Differentiation of AML cells” value (AML cells; [42]) was “causes AML cells to differentiate”, the “Apoptosis of AML cells” value (AML cells; at higher concentrations [42]) was “induces their apoptosis” and the Degradation [1] was “fast degradation”. The “Anti-cancer activity in combination” value (CML [2]; 10058-F4 and imatinib [26]) was “synergistic anti-cancer activity” and the Anti-CML activity (CML [2]; [26]) was “exerts anti-CML activity”.

For C=CCNc1nc(NCC=C)nc(N2CCN(C(c3ccc(F)cc3)c3ccc(F)cc3)CC2)n1 [almitrine dimesylate], the “Side-effects in humans compared with present cancer drugs” value ([3]; humans) is listed as “less, close to no, side-effects”, the Reversibility of side-effects ([3]; if side-effects occur [2]) is listed as “reversible upon stopping the course in nearly all cases” and the Side-effects ([3]; patients taking it daily for <11 months) is listed as “no side-effects in nearly every patient”. The Side-effects ([3]; patients taking it daily for >11 months to years [2]) was “side-effects in a very small minority of the many patients”, the “Anti-cancer activity vs SCAF11 minus RAPH1 gene expression (FIG. 1A bottom panel)” value (NCI-60 cancer cell lines; SCAF11 gene expression minus RAPH1 gene expression, CellMiner data) was “greater against cancers with greater value of SCAF11 gene expression minus RAPH1 gene expression” and the “Susceptibility to anti-cancer activity vs MYC oncogene expression (FIG. 1C)” value (NCI-60 cancer cell lines; gene MYC, CellMiner data) was “the more likely it is susceptible”. The “Anti-cancer activity vs RAPH1 gene expression (FIG. 1A middle panel)” value (NCI-60 cancer cell lines; gene RAPH1, CellMiner Affymetrix, Agilent and RNA-seq data) was “less against cancers with greater gene expression of RAPH1”, the “Anti-cancer activity vs SCAF11 gene expression (FIG. 1A upper panel)” value (NCI-60 cancer cell lines; gene SCAF11, CellMiner Affymetrix, Agilent and RNA-seq data) was “greater against cancers with greater gene expression of SCAF11” and the “Anti-cancer activity compared with present cancer drugs” value (NCI-60) was “greater anti-cancer activity than many present cancer drugs”. For the same molecule, the Adverse effect ([4]; subjects with normal liver function) was “without any adverse effect” and the “Blood [lactate]” value ([4]; subjects with poor/impaired liver function) was “can potentially increase blood [lactate]”.

In the case of C=CCNc1nc(NCC=C)nc(N2CCN(C(c3ccc(F)cc3)c3ccc(F)cc3)CC2)n1 [almitrine], the “Anti-CML activity in combination” value (CML [5]) is reported as “synergistic anti-CML activity”.
